These compounds were tested on HepG2 (assay: Cytotoxicity in human HepG2 cells assessed as reduction in cell viability incubated for 48 hrs by MTT assay). Details: hepg2, 48 h.
Assay type: cell-based

Compound	Activity
COC(=O)C1=CO[C@@H](O[C@@H]2O[C@H](CO)[C@@H](O)[C@H](O)[C@H]2O)[C@@H]2[C@H](C)[C@@H](O)C[C@H]12	Non-Toxic
COC(=O)C1=CO[C@@H](O[C@@H]2O[C@H](CO)[C@@H](O)[C@H](O)[C@H]2O)[C@@H]2[C@H](C)O[C@@H](OC)C[C@H]12	Non-Toxic
COC(=O)C1=CO[C@@H](O[C@@H]2O[C@H](CO)[C@@H](O)[C@H](O)[C@H]2O)[C@@H]2[C@H](C)O[C@H](OC)C[C@H]12	Non-Toxic
COC(=O)C1=CO[C@@H](O[C@@H]2O[C@H](CO)[C@@H](O)[C@H](O)[C@H]2O)[C@@H]2[C@H](C)O[C@H](O)C[C@H]12	Non-Toxic
COC(=O)C1=CO[C@@H](O[C@@H]2O[C@H](CO[C@@H]3C[C@@H]4C(C(=O)OC)=CO[C@@H](O[C@@H]5O[C@H](CO)[C@@H](O)[C@H](O)[C@H]5O)[C@@H]4[C@H](C)O3)[C@@H](O)[C@H](O)[C@H]2O)[C@@H]2[C@@H](C)[C@@H](O)C[C@H]12	Non-Toxic
CCO[C@@H]1C[C@@H]2C(C(=O)OC)=CO[C@@H](O[C@@H]3O[C@H](CO)[C@@H](O)[C@H](O)[C@H]3O)[C@@H]2[C@H](C)O1	Non-Toxic
COC(=O)C1=CO[C@@H](O[C@@H]2O[C@H](C)[C@@H](O)[C@H](O)[C@H]2O)[C@@H]2[C@H](C)O[C@@H](O[C@@H]3[C@@H](O)[C@H](O[C@@H]4OC=C(C(=O)OC)[C@H]5C[C@@H](OC)O[C@@H](C)[C@@H]45)O[C@H](CO)[C@H]3O)C[C@H]12	Non-Toxic
COC(=O)C1=CO[C@@H](O[C@@H]2O[C@H](CO)[C@@H](O)[C@H](O)[C@H]2O[C@@H]2C[C@@H]3C(C(=O)OC)=CO[C@@H](O[C@@H]4O[C@H](CO)[C@@H](O)[C@H](O)[C@H]4O)[C@@H]3[C@H](C)O2)[C@@H]2[C@@H](C)[C@@H](O)C[C@H]12	Non-Toxic
COC(=O)C1=CO[C@@H](O[C@@H]2O[C@H](C)[C@@H](O)[C@H](O)[C@H]2O)[C@@H]2[C@H](C)O[C@@H](O[C@H]3[C@H](O)[C@@H](O)[C@H](O[C@@H]4OC=C(C(=O)OC)[C@H]5C[C@H](OC)O[C@@H](C)[C@@H]45)O[C@@H]3CO)C[C@H]12	Non-Toxic
COC(=O)C1=CO[C@@H](O[C@@H]2O[C@H](CO)[C@@H](O)[C@H](O)[C@H]2O)[C@@H]2[C@H](C)O[C@H](O[C@H]3[C@H](O[C@@H]4OC=C(C(=O)OC)[C@H]5C[C@H](OC)O[C@@H](C)[C@@H]45)O[C@H](CO)[C@@H](O)[C@@H]3O)C[C@H]12	Non-Toxic
COC(=O)C1=CO[C@@H](O[C@@H]2O[C@H](CO)[C@@H](O)[C@H](O)[C@H]2O)[C@@H]2[C@@H](C)[C@@H](O[C@H]3C[C@@H]4C(C(=O)OC)=CO[C@@H](O[C@@H]5O[C@H](CO)[C@@H](O)[C@H](O)[C@H]5O)[C@@H]4[C@@H](C)O3)C[C@H]12	Non-Toxic
CCO[C@H]1C[C@@H]2C(C(=O)OC)=CO[C@@H](O[C@@H]3O[C@H](CO)[C@@H](O)[C@H](O)[C@H]3O)[C@@H]2[C@H](C)O1	Non-Toxic
COC(=O)C1=CO[C@@H](O[C@@H]2O[C@H](CO[C@@H]3C[C@@H]4C(C(=O)OC)=CO[C@@H](O[C@@H]5O[C@H](CO)[C@@H](O)[C@H](O)[C@H]5O)[C@@H]4[C@H](C)O3)[C@@H](O)[C@H](O)[C@H]2O)[C@@H]2[C@H](C)O[C@H](OC)C[C@H]12	Non-Toxic
COC(=O)C1=CO[C@@H](O[C@@H]2O[C@H](CO)[C@@H](O)[C@H](O)[C@H]2O)[C@@H]2[C@H](C)O[C@@H](O[C@H]3[C@H](O[C@@H]4OC=C(C(=O)OC)[C@H]5C[C@H](OC)O[C@@H](C)[C@@H]45)O[C@H](CO)[C@@H](O)[C@@H]3O)C[C@H]12	Non-Toxic
CCO[C@@H]1C[C@@H]2C(C(=O)OC)=CO[C@@H](O[C@@H]3O[C@H](CO[C@H]4C[C@@H]5C(C(=O)OC)=CO[C@@H](O[C@@H]6O[C@H](CO)[C@@H](O)[C@H](O)[C@H]6O)[C@@H]5[C@H](C)O4)[C@@H](O)[C@H](O)[C@H]3O)[C@@H]2[C@H](C)O1	Non-Toxic
COC(=O)C1=CO[C@@H](O[C@@H]2O[C@H](CO)[C@@H](O)[C@H](O)[C@H]2O)[C@@H]2[C@H](C)O[C@@H](OC[C@H]3O[C@@H](O[C@@H]4OC=C(C(=O)OC)[C@H]5C[C@@H](OC)O[C@@H](C)[C@@H]45)[C@H](O)[C@@H](O)[C@@H]3O)C[C@H]12	Non-Toxic
COC(=O)C1=CO[C@@H](O[C@@H]2O[C@H](CO[C@@H]3C[C@@H]4C(C(=O)OC)=CO[C@@H](O[C@@H]5O[C@H](CO)[C@@H](O)[C@H](O)[C@H]5O)[C@@H]4[C@H](C)O3)[C@@H](O)[C@H](O)[C@H]2O)[C@@H]2[C@H](C)O[C@@H](OC)C[C@H]12	Non-Toxic
COC(=O)C1=CO[C@@H](O[C@@H]2O[C@H](CO)[C@@H](O[C@H]3C[C@@H]4C(C(=O)OC)=CO[C@@H](O[C@@H]5O[C@H](C)[C@@H](O)[C@H](O)[C@H]5O)[C@@H]4[C@H](C)O3)[C@H](O)[C@H]2O)[C@@H]2[C@@H](C)[C@@H](O)C[C@H]12	Non-Toxic
COC(=O)C1=CO[C@@H](O[C@@H]2O[C@H](C)[C@@H](O)[C@H](O)[C@H]2O)[C@@H]2[C@H](C)O[C@@H](O[C@@H]3[C@@H](O)[C@H](O[C@@H]4OC=C(C(=O)OC)[C@H]5C[C@H](OC)O[C@@H](C)[C@@H]45)O[C@H](CO)[C@H]3O)C[C@H]12	Non-Toxic
COC(=O)C1=CO[C@@H](O[C@@H]2O[C@H](CO)[C@@H](O)[C@H](O)[C@H]2O)[C@@H]2[C@H](C)O[C@H](O[C@H]3[C@H](O[C@@H]4OC=C(C(=O)OC)[C@H]5C[C@@H](OC)O[C@@H](C)[C@@H]45)O[C@H](CO)[C@@H](O)[C@@H]3O)C[C@H]12	Non-Toxic
COC(=O)C1=CO[C@@H](O[C@@H]2O[C@H](CO[C@H]3C[C@@H]4C(C(=O)OC)=CO[C@@H](O[C@@H]5O[C@H](CO)[C@@H](O)[C@H](O)[C@H]5O)[C@@H]4[C@H](C)O3)[C@@H](O)[C@H](O)[C@H]2O)[C@@H]2[C@H](C)O[C@@H](OC)C[C@H]12	Non-Toxic
CCO[C@H]1C[C@@H]2C(C(=O)OC)=CO[C@@H](O[C@@H]3O[C@H](CO[C@H]4C[C@@H]5C(C(=O)OC)=CO[C@@H](O[C@@H]6O[C@H](CO)[C@@H](O)[C@H](O)[C@H]6O)[C@@H]5[C@H](C)O4)[C@@H](O)[C@H](O)[C@H]3O)[C@@H]2[C@H](C)O1	Non-Toxic
COC(=O)C1=CO[C@@H](O[C@@H]2O[C@H](CO)[C@@H](O)[C@H](O)[C@H]2O)[C@@H]2[C@@H](C)[C@@H](O)C[C@H]12 [LOGANIN]	Non-Toxic
COC(=O)C1=CO[C@@H](O[C@@H]2O[C@H](CO)[C@@H](O)[C@H](O)[C@H]2O)[C@@H]2[C@H](C)O[C@@H](O)C[C@H]12 [MORRONISIDE]	Non-Toxic
C=C[C@H]1[C@H](O[C@@H]2O[C@H](CO)[C@@H](O)[C@H](O)[C@H]2O)OC=C2C(=O)OCC[C@H]21 [SWEROSIDE]	Non-Toxic
